In data set [1] the target is T1, CETP (Homo sapiens, UniProt P11597).
T1 construct: made in house
T1 sequence (P11597 18-493): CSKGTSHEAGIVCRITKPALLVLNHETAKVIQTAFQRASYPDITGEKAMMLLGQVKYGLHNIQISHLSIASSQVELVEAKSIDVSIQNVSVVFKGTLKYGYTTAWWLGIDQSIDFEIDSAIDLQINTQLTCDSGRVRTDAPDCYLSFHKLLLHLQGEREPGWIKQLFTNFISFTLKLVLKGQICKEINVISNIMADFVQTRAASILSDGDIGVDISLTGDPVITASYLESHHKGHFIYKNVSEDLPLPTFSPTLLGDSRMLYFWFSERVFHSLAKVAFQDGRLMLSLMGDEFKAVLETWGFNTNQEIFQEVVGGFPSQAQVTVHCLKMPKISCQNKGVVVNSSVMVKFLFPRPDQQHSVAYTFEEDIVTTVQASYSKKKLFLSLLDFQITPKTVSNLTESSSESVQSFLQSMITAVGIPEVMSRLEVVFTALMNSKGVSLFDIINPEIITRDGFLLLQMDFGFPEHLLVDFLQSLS
The data set is described as follows: Scintillation Proximity Assay (SPA) for CETP Activity. It is filed as biochemical. The procedure: Protocol: Scintillation Proximity Assay (SPA) for CETP Activity
First low density lipoprotein (LDL) (Meridian) was biotinylated by incubating LDL with biotin for 1 hour on ice, after which it was dialyzed to remove free biotin. Then compounds at varying concentrations were incubated with 15 nM CETP (reagent production group, In Vitro Pharmacology, MRL Rahway) and 50 ug/ml of the biotinylated LDL in 50 mM HEPES, 150 mM NaCl, pH 7.4, for 1 hour at 37° C. The reaction was started by adding ^3H-cholesterol ester high density lipoprotein (HDL) (American Radiochemicals Corp) at a concentration of ˜0.6 nM. The reaction proceeded for 2 hours at 37° C., after which time it was quenched by the addition of 12% acetic acid. PVT streptavadin-coated scintillation proximity beads, which had been brought to room temperature, were then added at a concentration of 4 mg/ml. The assay was then mixed and counted after one half hour in a Microbeta plate reader.

In data set [2] the target is T2, endogenous CETP from serum (Homo sapiens, UniProt P11597).
T2 construct: For the transfer assay using endogenous CETP from serum (95% RTA); from tissue; host or cells: human serum
T2 sequence (P11597 18-493): T1 sequence (P11597 18-493)
The data set is described as follows: RTA assay using endogenous CETP from serum (95% RTA). In kind it is biochemical. The conditions noted are these: RTA assay in 95% human serum, labeled with an asterisk. The procedure:
In Vitro Radioactive Assays of CETP-Catalyzed CE and TG Transfer (RTA Assay)
Reagents and sources are: [3H] cholesteryl oleate (GE #TRK.886), [3H] Triolein (Perkin-Elmer NET-431), Butylated hydroxyl toluene (Aldrich, #D4740-4), DOPC (Sigma, #P6354), Sodium Bromide (Fisher scientific #5255-500), PEG 8000 (Fisher, #BP233-1), and human HDL (Intracel Corp #RP-036).
An in vitro assay for determining IC50's to identify compounds that inhibit CETP transfer activity is performed based on a modification of a published method (Morton and Zilversmit, (1981) A plasma inhibitor of triglyceride and cholesteryl ester transfer activities, J. Biol. Chem. 256(23), 11992-11995). The ability of inhibitors to alter CETP activity is performed using two different assays: one using recombinant CETP and one using an edogenous plasma source of CETP. Both assays measure the transfer of [3H] cholesteryl oleate or [3H]triolein from exogenous LDL to HDL.
Radiolabeled donor particles are generated by first combining 100 μl of 200 μM butylated hydroxyl toluene in CHCl3, 216 μL of 21.57 mM DOPC in EtOH, and either 500 μCi [3H]-triolein (Perkin Elmer #NET-431) or 500 μCi [3H]-cholesteryl oleate (GE #TRK886) in a glass tube. Reagents are mixed, dried under nitrogen, and then resuspended in 2 mL of 50 mM Tris, 27 μM EDTA at pH 7.4. After a brief vortex, the solution is sonicated until clear and mixed with 20 mL of fresh human serum. The mixture is incubated overnight at 37° C. The [3H] labeled LDL substrate is separated at 1.063 g/ml density by sequential ultracentrifugal flotation in NaBr according to the method by (Havel, Eder et al. 1955; Chapman, Goldstein et al. 1981). Once isolated the particles are dialyzed 3× in CETP buffer (50 mM Tris, pH 7.4, 100 mM NaCl, 1 mM EDTA). Human HDL is purchased from Intracel and used as the acceptor particles.
Transfer assays are performed in a 96-well v-bottom polypropylene plate. […] After mixing, plates are counted by liquid scintillation. […]

The conditions of data set [3]: torcetrapib and atorvastatin concomitantly compared with atorvastatin alone; cited from earlier work.
For data set [4] the following is noted: cited from earlier work.
Data set [5] deals with T3, recombinant CETP (rCETP) (Homo sapiens, UniProt P11597).
T3 sequence (P11597 18-493): T1 sequence (P11597 18-493)
Kind of data set: RTA assay using recombinant CETP (2% RTA). In kind it is biochemical. As to conditions: RTA assay in 2% human serum; read-out: IC50. The gist of the method:
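Compounds preincubated 1 h at 37 °C with assay cocktail (CETP buffer: 50 mM Tris pH 7.4, 100 mM NaCl, 1 mM EDTA; human HDL acceptor); transfer started with [3H]cholesteryl oleate- or [3H]triolein-labelled LDL, 60 min at 37 °C. LDL PEG-precipitated; supernatant counted by scintillation, blank-corrected; IC50 from 4-parameter sigmoidal fit of % inhibition vs DMSO control.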

The mark [6] stands for this setting: patients, with baseline statin therapy, compared with just a statin.

Molecules are shown by their SMILES.

The compound `COc1cc(F)c(C(C)C)cc1-c1ccc(-n2cccn2)nc1CN1C(=O)O[C@H](c2cc(C(F)(F)F)cc(C(F)(F)F)c2)[C@@H]1C` [Example 299, (4S,5R)-5-[3,5-bis(trifluoromethyl)phenyl]-3-({3-[4-fluoro-2-methoxy-5-(propan-2-yl)phenyl]-6-(1H-pyrazol-1-yl)pyridin-2-yl}methyl)-4-methyl-1,3-oxazolidin-2-one] gave an IC50 in data set [1] of 55.8 nM.

Regarding `COc1ccc(CCC(=O)O)cc1-c1cnc(N2CCC2)nc1CN1C(=O)O[C@H](c2cccc(F)c2)[C@@H]1C` [Example 277], in data set [2], the IC50 came to 35 nM.

`CCOC(=O)N1c2ccc(C(F)(F)F)cc2[C@@H](N(Cc2cc(C(F)(F)F)cc(C(F)(F)F)c2)C(=O)OC)C[C@H]1CC` [torcetrapib, Torcetrapib]: the incidence of mortality result in data set [3] is “higher incidence of mortality”.

Regarding `COc1cc(F)c(C(C)C)cc1-c1ccc(C(F)(F)F)cc1CN1C(=O)O[C@H](c2cc(C(F)(F)F)cc(C(F)(F)F)c2)[C@@H]1C` [anacetrapib], in data set [4] (patients treated with anacetrapib), the increase in mortality result is recorded as “unlikely”. Further, in data set [4] (setting [6]), the “decrease of LDL-C” value is recorded as 40% and the “increase of HDL-C” value is reported as 138%.

For the compound `COC(=O)c1ccc(-c2cc(-c3cnc(N4CCC4)nc3CN3C(=O)O[C@H](c4cc(C(F)(F)F)cc(C(F)(F)F)c4)[C@@H]3C)c(F)cc2F)c(C)c1` [Example 142], in data set [2], the IC50 was determined as 145 nM.

Regarding `Cc1cc(C(=O)O)ccc1-c1cc(-c2cnc(N3CCC3)nc2CN2C(=O)O[C@H](c3cc(C(F)(F)F)cc(C(F)(F)F)c3)[C@@H]2C)c(F)cc1F` [Example 170], inhibition in data set [2] was half-maximal at 110 nM (IC50).

As for `COCCCc1ccc(OC2CC2)c(-c2ccc(N3CCC3)nc2CN2C(=O)O[C@H](c3cc(C(F)(F)F)cc(C(F)(F)F)c3)[C@@H]2C)c1` [Example 261], in data set [5], the IC50 stood at 42 nM.

Consider `COc1ccc(CCC(=O)O)cc1-c1ccc(N2CCC2)nc1CN1C(=O)O[C@H](c2cc(F)c(F)c(F)c2)[C@@H]1C` [Example 98], for which the IC50 in data set [5] was 223 nM.

In the case of `C[C@H]1[C@@H](c2cc(C(F)(F)F)cc(C(F)(F)F)c2)OC(=O)N1Cc1nc(N2CCC2)ccc1-c1cc(CCC(=O)O)ccc1Cl` [Example 74], in data set [5], the IC50 came out at 9 nM.

As for `COc1ccc(CC(C)(C)C(=O)OC(C)(C)C)cc1-c1cnc(N2CCC2)nc1CN1C(=O)O[C@H](c2cc(C(F)(F)F)cc(C(F)(F)F)c2)[C@@H]1C` [Example 127], the IC50 in data set [5] stood at 114 nM.

Regarding `COc1cc(F)c([C@H]2C[C@H](C(=O)OC)C2)cc1-c1ccc(N2CCC2)nc1CN1C(=O)O[C@H](c2cc(C(F)(F)F)cc(C(F)(F)F)c2)[C@@H]1C` [Example 38], the IC50 in data set [5] is 5 nM.

In the case of `COC1CN(c2ncc(-c3cc([C@H]4CC[C@H](C(=O)O)CC4)ccc3Cl)c(CN3C(=O)O[C@H](c4cc(C(F)(F)F)cc(C(F)(F)F)c4)[C@@H]3C)n2)C1` [Example 167], in data set [5], the IC50 is 771 nM.

Take `COC(=O)[C@@H]1CC[C@@H](c2ccc(OC)c(-c3ccc(N4CCC4)nc3CN3C(=O)O[C@H](c4cc(C(F)(F)F)cc(C(F)(F)F)c4)[C@@H]3C)c2)C1` (racemic) [Example 214]: the IC50 in data set [5] was determined as 8 nM.

Regarding `COc1cc(F)c(-c2ccc(C(=O)O)cc2C)cc1-c1ccc(N2CCC2)nc1CN1C(=O)O[C@H](c2cc(F)c(F)c(F)c2)[C@@H]1C` [Example 102], in data set [5], the IC50 came out at 8 nM.

Consider `COC(=O)Cc1ccc(OC)c(-c2ccc(N3CCC3)nc2CN2C(=O)O[C@H](c3cc(C(F)(F)F)cc(C(F)(F)F)c3)[C@@H]2C)c1` [Example 8], for which the IC50 in data set [5] is 12 nM.

Consider `COc1ccc([C@H]2CC[C@H](C(=O)O)CC2)cc1-c1ccc(N2CCC2)nc1CN1C(=O)O[C@H](c2cc(C)cc(C)c2)[C@@H]1C` [Example 224], for which the IC50 in data set [5] was determined as 14 nM.

In the case of `CCc1ccc(-c2ccc(C(=O)OC)cc2C)cc1-c1cnc(N2CC(F)(F)C2)nc1CN1C(=O)O[C@H](c2cc(C(F)(F)F)cc(C(F)(F)F)c2)[C@@H]1C` [Example 133], the IC50 in data set [5] stood at 39 nM.

For the compound `COc1ccc(-c2cc(C(=O)O)co2)cc1-c1ccc(N2CCC2)nc1CN1C(=O)O[C@H](c2cc(C(F)(F)F)cc(C(F)(F)F)c2)[C@@H]1C` [Example 113], the half-maximal inhibitory concentration (IC50) in data set [5] stood at 29 nM.

These data come from patent publication US9221834B2 (Merck Sharp & Dohme Corp., priority 2010, dated 2015).
